The target of assay [1] is T1, aldosterone synthase (CYP11B2) (Macaca fascicularis, UniProt A0A2K5UPL9).
T1 construct: cynomolgus adrenal gland mitochondria as the source of aldosterone synthase (CYP11B2); from tissue; host or cells: cynomolgus monkey adrenal gland mitochondria
T1 sequence (A0A2K5UPL9 1-503): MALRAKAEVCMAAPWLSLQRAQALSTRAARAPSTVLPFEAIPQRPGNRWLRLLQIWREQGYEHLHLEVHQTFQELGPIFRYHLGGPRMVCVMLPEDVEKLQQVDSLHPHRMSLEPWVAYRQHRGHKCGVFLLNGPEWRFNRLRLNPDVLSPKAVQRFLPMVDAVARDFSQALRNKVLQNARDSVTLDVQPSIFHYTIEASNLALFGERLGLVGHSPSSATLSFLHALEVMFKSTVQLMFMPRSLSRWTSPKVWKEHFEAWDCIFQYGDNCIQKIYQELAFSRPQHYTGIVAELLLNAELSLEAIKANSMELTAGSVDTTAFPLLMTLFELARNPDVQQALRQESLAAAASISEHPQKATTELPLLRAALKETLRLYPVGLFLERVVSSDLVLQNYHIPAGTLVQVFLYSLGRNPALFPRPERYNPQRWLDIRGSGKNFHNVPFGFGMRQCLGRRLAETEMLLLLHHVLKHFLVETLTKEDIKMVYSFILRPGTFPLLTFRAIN
Description: Inhibition of aldosterone synthase (cynomolgus adrenal mitochondria, aldosterone by mass spectrometry). Conditions: cynomolgus adrenal gland mitochondria, 2 μM corticosterone substrate, 90 minutes at 37° C. Format: biochemical, cynomolgus monkey. Here is the method:
(§1) The aldosterone synthase and cortisol synthase inhibition assays employ cynomolgus adrenal gland mitochondria as the source of aldosterone synthase (CYP11B2) and cortisol synthase (CYP11B1). Mitochondria are prepared from frozen cynomolgus monkey adrenal glands according to Method A described in by J. D. McGarry et al. (Biochem. J., 1983, 214, 21-28), with a final resuspension in the AT buffer described in R. Yamaguchi et al. (Cell Death and Differentiation, 2007, 14, 616-624), frozen as aliquots in liquid nitrogen and stored at −80° C. until use. Activity of CYP11B2 and CYP11B1 in these preparations is defined as the amount of enzyme that generates 1 pmol of product in one hour under the conditions described.
Assays are performed in 96-well format in a final volume of 60 µL/well, containing 100 mM potassium phosphate, pH 7.4, 1% (v/v) DMSO, and additionally, 2 μM of corticosterone and 50 units of CYP11B2 activity. Reactions are started by the addition of NADPH to 1 mM and allowed to proceed for 90 minutes at 37° C. Reactions are terminated by the addition of 60 μL of MeCN containing an internal standard for mass spectrometry. One hundred microliters are then transferred to a glass filter plate and centrifuged at 570×g for 5 minutes and the filtrate is collected. Reaction product aldosterone is quantified by mass spectrometry. To determine the assay blank value (0% activity), NADPH is omitted from some reactions.
Dose dependent inhibition is quantified by the inclusion of compound at various concentrations. Maximum activity (100%) is defined by reactions containing NADPH, but without compound. Activities at each concentration are expressed as a percentage of the maximum activity (y-axis) and plotted against concentration of compound (x-axis) and the concentration corresponding to 50% activity (IC50) determined using the XLFit curve-fitting program using a 4-parameter logistic model.

The target of assay [2] is cortisol synthase (CYP11B1) (Macaca fascicularis, UniProt A0A2K5ULY1). Description: Inhibition of cortisol synthesis (cynomolgus adrenal mitochondria, cortisol by mass spectrometry). Format: biochemical, cynomolgus monkey. Here is the method:
as §1, with “described. Dose dependent inhibition is quantified by the inclusion of compound at various concentrations. Maximum activity (100%) is defined by reactions containing NADPH, but without compound. Activities at each concentration are expressed as a percentage of the maximum activity (y-axis) and plotted against concentration of compound (x-axis) and the concentration corresponding to 50% activity (IC50) determined using the XLFit curve-fitting program using a 4-parameter logistic model. Assays are performed as for aldosterone synthase except for the use of 150 units of CYP11B1, 11-deoxycortisol as substrate and cortisol measured as product.” for “described.”

Setting [3] is: cynomolgus adrenal gland mitochondria, 11-deoxycortisol as substrate, cortisol measured as product; read-out: CYP11B1 Inhibition IC50.

Where a name gives a salt, the structure may show the parent alone. Read-outs that look alike come from different tables or passages of the source. Bounds are passed on as bounds.

Usually IC50 stands for the concentration that gives 50% inhibition. Consider `CC1(C)CC(=O)c2c(noc2Cc2ccc(OCCS(C)(=O)=O)cc2)C1` [Cpd 29, 3-[4-(2-Methanesulfonyl-ethoxy)-benzyl]-6,6-dimethyl-6,7-dihydro-5H-benzo[c]isoxazol-4-one], for which the half-inhibitory concentration (IC50) in assay [1] is 73 nM; in assay [2] (setting [3]) it was 7.4 µM.
Turning to `CC1(C)Cc2noc(Cc3ccc(C(N)=O)cc3)c2C(=O)O1` [Cpd 95, 4-(6,6-Dimethyl-4-oxo-6,7-dihydro-4H-pyrano[4,3-c]isoxazol-3-ylmethyl)-benzamide], the 50% inhibitory concentration (IC50) in assay [1] is 71 nM; in assay [2] (setting [3]), 16 µM.
As to `CC(=O)N1CCC(Cc2onc3c2C(=O)CC(C)(C)C3)CC1` [Cpd 17, 3-(1-Acetyl-piperidin-4-ylmethyl)-6,6-dimethyl-6,7-dihydro-5H-benzo[c]isoxazol-4-one], the IC50 came to 690 nM in assay [1] and 24 µM in assay [2] (setting [3]).
For `CC1(C)CC(=O)c2c(noc2Cc2ccc(OCCC(N)=O)cc2)C1` [Cpd 81, 3-[4-(6,6-Dimethyl-4-oxo-4,5,6,7-tetrahydro-benzo[c]isoxazol-3-ylmethyl)-phenoxy]-propionamide], the half-maximal inhibitory concentration (IC50) in assay [1] was 35 nM; in assay [2] (setting [3]) it was 2.5 µM.
On to `CC(C)C1CC(=O)c2c(noc2CC2CCNCC2)C1` (stereo not shown) [Cpd 14, 4-(6-Isopropyl-4-oxo-4,5,6,7-tetrahydro-benzo[c]isoxazol-3-ylmethyl)-piperidinium hydrochloride], for which the IC50 in assay [1] is 2400 nM; in assay [2] (read-out: CYP11B1 Inhibition IC50; cynomolgus adrenal gland mitochondria, 11-deoxycortisol as substrate, cortisol measured as product), over 30 µM.
Take `CC(C)C1CC(=O)c2c(noc2CC2CCN(C(=O)CS(C)(=O)=O)CC2)C1` (stereo not shown) [Cpd 20, 6-Isopropyl-3-[1-(2-methanesulfonyl-acetyl)-piperidin-4-ylmethyl]-6,7-dihydro-5H-benzo[c]isoxazol-4-one]: the concentration for half-maximal inhibition (IC50) in assay [1] came out at 410 nM; in assay [2] (setting [3]), 14 µM.
For `CNC(=O)CCOc1ccc(Cc2onc3c2C(=O)CC(C)(C)C3)cc1` [Cpd 80, 3-[4-(6,6-Dimethyl-4-oxo-4,5,6,7-tetrahydro-benzo[c]isoxazol-3-ylmethyl)-phenoxy]-N-methyl-propionamide], the IC50 is 29 nM in assay [1] and 1.8 µM in assay [2] (setting [3]).
With `CC1(C)CC(=O)c2c(noc2Cc2ccc3c(c2)OCCO3)C1` [Cpd 3, 3-(2,3-Dihydro-benzo[1,4]dioxin-6-ylmethyl)-6,6-dimethyl-6,7-dihydro-5H-benzo[c]isoxazol-4-one], the concentration for half-maximal inhibition (IC50) in assay [1] was found to be 17 nM; in assay [2] (setting [3]), 0.59 µM.
For the compound `CC1(C)CC(=O)c2c(noc2Cc2ccc(C(=O)NCC3(CO)CCCC3)cc2)C1` [Cpd 70, 4-(6,6-Dimethyl-4-oxo-4,5,6,7-tetrahydro-benzo[c]isoxazol-3-ylmethyl)-N-(1-hydroxymethyl-cyclopentylmethyl)-benzamide], the IC50 in assay [1] worked out at 160 nM; in assay [2] (setting [3]) it was 11 µM.
The like results for `O=C1CC(CC2CC2)Cc2noc(Cc3ccc(C(=O)N4CC[C@@H](O)C4)cc3)c21` (stereo partly drawn) [Cpd 63, 6-Cyclopropylmethyl-3-[4-((R)-3-hydroxy-pyrrolidine-1-carbonyl)-benzyl]-6,7-dihydro-5H-benzo[c]isoxazol-4-one] were, in that order, 110 nM and 4.1 µM.
Turning to `CN(CCO)C(=O)c1ccc(Cc2onc3c2C(=O)OC(C)(C)C3)cc1` [Cpd 96, 4-(6,6-Dimethyl-4-oxo-6,7-dihydro-4H-pyrano[4,3-c]isoxazol-3-ylmethyl)-N-(2-hydroxy-ethyl)-N-methyl-benzamide], the IC50 was determined as 73 nM in assay [1] and 10 µM in assay [2] (setting [3]).
In the case of `C[C@H](O)CNC(=O)c1ccc(Cc2onc3c2C(=O)CC(C)(C)C3)cc1` [Cpd 71, 4-(6,6-Dimethyl-4-oxo-4,5,6,7-tetrahydro-benzo[c]isoxazol-3-ylmethyl)-N-((S)-2-hydroxy-propyl)-benzamide], the results for the IC50 in assay [1] and in assay [2] (setting [3]) were 170 nM and 20 µM, respectively.
For `CS(=O)(=O)CCCOc1ccc(Cc2onc3c2C(=O)CC2(CCC2)C3)cc1` [Cpd 50, 3-[4-(3-Methanesulfonyl-propoxy)-benzyl]-6-6-spirocyclebutyl-6,7-dihydro-5H-benzo [c]isoxazol-4-one], the half-inhibitory concentration (IC50) amounted to 72 nM in assay [1] and 0.58 µM in assay [2] (setting [3]).
Take `CC1(C)CC(=O)c2c(noc2Cc2ccc(C#N)c(F)c2)C1` [Cpd 37, 4-(6,6-Dimethyl-4-oxo-4,5,6,7-tetra hydro-benzo[c]isoxazol-3-ylmethyl)-2-fluoro-benzonitrile]: the figures for the IC50 in assay [1] and in assay [2] (setting [3]) were 74 nM and 11 µM, respectively.
On the same counts, the results for `CC1(C)Cc2noc(CC3CCOCC3)c2C(=O)O1` [Cpd 92, 6,6-Dimethyl-3-(tetrahydro-pyran-4-ylmethyl)-6,7-dihydro-pyrano[4,3-c] isoxazol-4-one] are 340 nM and 69 µM.
Regarding `CC1(C)CC(=O)c2c(noc2Cc2ccc(OCCCS(C)(=O)=O)cc2)C1` [Cpd 27, 3-[4-(3-Methanesulfonyl-propoxy)-benzyl]-6,6-dimethyl-6,7-dihydro-5H-benzo[c]isoxazol-4-one], the half-inhibitory concentration (IC50) was 59 nM in assay [1] and 3.4 µM in assay [2] (setting [3]).
As to `CC(C)N(CCO)C(=O)c1ccc(Cc2onc3c2C(=O)CC(C)(C)C3)cc1` [Cpd 67, 4-(6,6-Dimethyl-4-oxo-4,5,6,7-tetrahydro-benzo[c]isoxazol-3-ylmethyl)-N-(2-hydroxy-ethyl)-N-isopropyl-benzamide], the IC50 in assay [1] was found to be 120 nM; in assay [2] (setting [3]) it was 7.3 µM.
Turning to `C[C@@H](O)CNC(=O)c1ccc(Cc2onc3c2C(=O)CC(C)(C)C3)cc1` [Cpd 73, 4-(6,6-Dimethyl-4-oxo-4,5,6,7-tetrahydro-benzo[c]isoxazol-3-ylmethyl)-N-((R)-2-hydroxy-propyl)-benzamide], the IC50 in assay [1] came out at 230 nM; in assay [2] (setting [3]), 23 µM.
As for `CC1(C)CC(=O)c2c(noc2Cc2ccc(I)cc2)C1` [Cpd 25, 3-(4-Iodo-benzyl)-6,6-dimethyl-6,7-dihydro-5H-benzo[c]isoxazol-4-one], the IC50 in assay [1] was determined as 29 nM; in assay [2] (setting [3]), 2.8 µM.
On the same counts, the results for `COCCN(C)C(=O)c1ccc(Cc2onc3c2C(=O)CC(C)(C)C3)cc1` [Cpd 56, 4-(6,6-Dimethyl-4-oxo-4,5,6,7-tetrahydro-benzo[c]isoxazol-3-ylmethyl)-N-(2-methoxy-ethyl)-N-methyl-benzamide] are 69 nM and 11 µM.
On the same counts, the results for `NC(=O)c1ccc(Cc2onc3c2C(=O)CC(CC2CC2)C3)cc1` (stereo not shown) [Cpd 51, 4-(6-Cyclopropylmethyl-4-oxo-4,5,6,7-tetrahydro-benzo[c]isoxazol-3-ylmethyl)-benzamide] are 21 nM and 3.7 µM.
Regarding `CC1(C)CC(=O)c2c(noc2Cc2ccc(C(=O)N3CCC[C@@H](O)C3)cc2)C1` [Cpd 72, 3-[4-((R)-3-Hydroxy-piperidine-1-carbonyl)-benzyl]-6,6-dimethyl-6,7-dihydro-5H-benzo[c]isoxazol-4-one], the 50% inhibitory concentration (IC50) stood at 180 nM in assay [1] and 5.9 µM in assay [2] (setting [3]).
`COc1ccc(Cc2onc3c2C(=O)CC(C)(C)C3)cn1` [Cpd 10, 3-(6-Methoxy-pyridin-3-ylmethyl)-6,6-dimethyl-6,7-dihydro-5H-benzo[c]isoxazol-4-one]: the concentration for half-maximal inhibition (IC50) in assay [1] stood at 110 nM; in assay [2] (setting [3]), 7.7 µM.

(Values after US10131642B1, “Aldosterone synthase inhibitors” (Boehringer Ingelheim International GmbH, priority 2015, dated 2018).)
